Experimental data as given in PubChem BioAssay (NCI).
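Test compounds were applied to cells in 96-well plates for 48 hours at 5 doses. The concentration for full growth arrest is given as TGI.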

Tests used:
Experiment in all cases: NCI-60 cell line screen, 48 h
786-0 renal = test system: 786-0 renal
A498 renal = test system: A498 renal
A549 NSCLC = test system: A549 NSCLC
ACHN renal = test system: ACHN renal
BT-549 breast = test system: BT-549 breast
CAKI-1 renal = test system: CAKI-1 renal
CCRF-CEM leukemia = test system: CCRF-CEM leukemia
COLO 205 colon = test system: COLO 205 colon
DU-145 prostate = test system: DU-145 prostate
EKVX NSCLC = test system: EKVX NSCLC
HCC-2998 colon = test system: HCC-2998 colon
HCT-116 colon = test system: HCT-116 colon
HCT-15 colon = test system: HCT-15 colon
HOP-62 NSCLC = test system: HOP-62 NSCLC
HOP-92 NSCLC = test system: HOP-92 NSCLC
HS 578T breast = test system: HS 578T breast
HT29 colon = test system: HT29 colon
IGROV1 ovarian = test system: IGROV1 ovarian
K-562 leukemia = test system: K-562 leukemia
KM12 colon = test system: KM12 colon
LOX IMVI melanoma = test system: LOX IMVI melanoma
M14 melanoma = test system: M14 melanoma
MALME-3M melanoma = test system: MALME-3M melanoma
MCF7 breast = test system: MCF7 breast
MDA-MB-231 breast = test system: MDA-MB-231 breast
MDA-MB-435 = test system: MDA-MB-435
MDA-N = test system: MDA-N
MOLT-4 leukemia = test system: MOLT-4 leukemia
NCI-H226 lung = test system: NCI-H226 lung
NCI-H23 lung = test system: NCI-H23 lung
NCI-H460 lung = test system: NCI-H460 lung
NCI-H522 lung = test system: NCI-H522 lung
NCI/ADR-RES ovarian = test system: NCI/ADR-RES ovarian
OVCAR-3 ovarian = test system: OVCAR-3 ovarian
OVCAR-4 ovarian = test system: OVCAR-4 ovarian
OVCAR-5 ovarian = test system: OVCAR-5 ovarian
OVCAR-8 ovarian = test system: OVCAR-8 ovarian
PC-3 prostate = test system: PC-3 prostate
RPMI-8226 leukemia = test system: RPMI-8226 leukemia
RXF 393 renal = test system: RXF 393 renal
SF-268 CNS = test system: SF-268 CNS
SF-295 CNS = test system: SF-295 CNS
SF-539 CNS = test system: SF-539 CNS
SK-MEL-2 melanoma = test system: SK-MEL-2 melanoma
SK-MEL-28 melanoma = test system: SK-MEL-28 melanoma
SK-MEL-5 melanoma = test system: SK-MEL-5 melanoma
SK-OV-3 ovarian = test system: SK-OV-3 ovarian
SN12C renal = test system: SN12C renal
SNB-19 CNS = test system: SNB-19 CNS
SNB-75 CNS = test system: SNB-75 CNS
SR leukemia = test system: SR leukemia
SW-620 colon = test system: SW-620 colon
T-47D breast = test system: T-47D breast
TK-10 renal = test system: TK-10 renal
U251 CNS = test system: U251 CNS
UACC-257 melanoma = test system: UACC-257 melanoma
UO-31 renal = test system: UO-31 renal
UACC-62 melanoma = test system: UACC-62 melanoma

CN=c1sc2c(n1C)C(=O)c1ccccc1C2=O
TGI (786-0 renal): 20.7 µM | TGI (A498 renal): 30.1 µM | TGI (A549 NSCLC): 3.94 µM | TGI (ACHN renal): 19.2 µM | TGI (BT-549 breast): 3.58 µM | TGI (CAKI-1 renal): 15.5 µM | TGI (CCRF-CEM leukemia): 44.4 µM | TGI (COLO 205 colon): 11.9 µM | TGI (DU-145 prostate): 3.12 µM | TGI (EKVX NSCLC): 24.3 µM | TGI (HCC-2998 colon): 20.4 µM | TGI (HCT-116 colon): 9.1 µM | TGI (HCT-15 colon): 4.82 µM | TGI (HOP-62 NSCLC): 3.39 µM | TGI (HOP-92 NSCLC): 29.9 µM | TGI (HS 578T breast): 6.16 µM | TGI (HT29 colon): 10.4 µM | TGI (IGROV1 ovarian): > 41.6 µM | TGI (K-562 leukemia): 12.2 µM | TGI (KM12 colon): 13.5 µM | TGI (LOX IMVI melanoma): 10.4 µM | TGI (M14 melanoma): 3.01 µM | TGI (MALME-3M melanoma): 1.14 µM | TGI (MCF7 breast): 3.8 µM | TGI (MDA-MB-231 breast): 33.7 µM | TGI (MDA-MB-435): 0.374 µM | TGI (MDA-N): 0.467 µM | TGI (MOLT-4 leukemia): 26.5 µM | TGI (NCI-H226 lung): 5.65 µM | TGI (NCI-H23 lung): 2.38 µM | TGI (NCI-H460 lung): 8.01 µM | TGI (NCI-H522 lung): 29.4 µM | TGI (NCI/ADR-RES ovarian): 16.4 µM | TGI (OVCAR-3 ovarian): 11.3 µM | TGI (OVCAR-4 ovarian): 11 µM | TGI (OVCAR-5 ovarian): 9.26 µM | TGI (OVCAR-8 ovarian): 15.3 µM | TGI (PC-3 prostate): > 55.1 µM | TGI (RPMI-8226 leukemia): 24.6 µM | TGI (RXF 393 renal): 9.01 µM | TGI (SF-268 CNS): 14.5 µM | TGI (SF-295 CNS): 3.77 µM | TGI (SF-539 CNS): 4.2 µM | TGI (SK-MEL-2 melanoma): 6.14 µM | TGI (SK-MEL-28 melanoma): 3.61 µM | TGI (SK-MEL-5 melanoma): 6.85 µM | TGI (SK-OV-3 ovarian): 77.9 µM | TGI (SN12C renal): 3.05 µM | TGI (SNB-19 CNS): 10.1 µM | TGI (SNB-75 CNS): 4.33 µM | TGI (SR leukemia): 8.97 µM | TGI (SW-620 colon): 4.81 µM | TGI (T-47D breast): 17.5 µM | TGI (TK-10 renal): 35.6 µM | TGI (U251 CNS): 10.5 µM | TGI (UACC-257 melanoma): 4.59 µM | TGI (UO-31 renal): 19.6 µM

CN1C(=O)CC(=O)N1/C(=C/c1ccccc1)c1ccccc1
TGI (A549 NSCLC): > 100 µM | TGI (ACHN renal): > 100 µM | TGI (BT-549 breast): > 100 µM | TGI (CAKI-1 renal): 62.5 µM | TGI (CCRF-CEM leukemia): 54.3 µM | TGI (COLO 205 colon): > 100 µM | TGI (DU-145 prostate): > 100 µM | TGI (EKVX NSCLC): > 100 µM | TGI (HCC-2998 colon): > 100 µM | TGI (HCT-116 colon): > 100 µM | TGI (HOP-62 NSCLC): > 100 µM | TGI (HOP-92 NSCLC): > 100 µM | TGI (HS 578T breast): 88.1 µM | TGI (HT29 colon): > 100 µM | TGI (IGROV1 ovarian): 42.2 µM | TGI (K-562 leukemia): > 100 µM | TGI (KM12 colon): > 100 µM | TGI (LOX IMVI melanoma): 31.2 µM | TGI (M14 melanoma): > 100 µM | TGI (MCF7 breast): > 100 µM | TGI (MDA-MB-231 breast): 79.4 µM | TGI (MDA-MB-435): > 100 µM | TGI (MDA-N): > 100 µM | TGI (MOLT-4 leukemia): 55.5 µM | TGI (NCI-H226 lung): > 100 µM | TGI (NCI-H23 lung): > 100 µM | TGI (NCI-H460 lung): > 100 µM | TGI (NCI/ADR-RES ovarian): > 100 µM | TGI (OVCAR-3 ovarian): > 100 µM | TGI (OVCAR-4 ovarian): > 100 µM | TGI (OVCAR-5 ovarian): > 100 µM | TGI (OVCAR-8 ovarian): > 100 µM | TGI (PC-3 prostate): > 100 µM | TGI (RPMI-8226 leukemia): > 100 µM | TGI (RXF 393 renal): 54.1 µM | TGI (SF-268 CNS): > 100 µM | TGI (SF-295 CNS): > 100 µM | TGI (SK-MEL-2 melanoma): > 100 µM | TGI (SK-MEL-28 melanoma): > 100 µM | TGI (SK-MEL-5 melanoma): > 100 µM | TGI (SK-OV-3 ovarian): > 100 µM | TGI (SN12C renal): > 100 µM | TGI (SNB-19 CNS): > 100 µM | TGI (SNB-75 CNS): > 100 µM | TGI (SR leukemia): > 100 µM | TGI (SW-620 colon): > 100 µM | TGI (T-47D breast): > 100 µM | TGI (TK-10 renal): 91.9 µM | TGI (U251 CNS): > 100 µM | TGI (UACC-257 melanoma): > 100 µM | TGI (UACC-62 melanoma): > 100 µM | TGI (UO-31 renal): 32 µM
